Results reported in paper PMC10641818, “Development of First-in-Class Dual Sirt2/HDAC6 Inhibitors as Molecular Tools for Dual Inhibition of Tubulin Deacetylation” (Journal of Medicinal Chemistry, 2023).

How the values were obtained:
[1] = system: MCF-7 breast cancer cells; test: Cell viability assay (MTT) MCF-7; type: cell-based; conditions: 72 h, @ 50 μM
Experimental: (§1) Cell viability assays of HGC27 and PC-3M-luc cells were performed by using the Celltiter 96 Aqueous Nonradioactive Proliferation Assay (Promega). Cells were seeded in sterile 96-well plates at a density of 2000 cells per well and incubated overnight at 37 °C and 5% CO2. Compound or vehicle were added to a final concentration of 0.5% DMSO. […] Cells were seeded at densities of 10^4 cells/well for W1 cells or 2 × 10^3 cells/well for MCF-7 cells. Tests were performed in 96-well plates (Sarstedt AG, Nümbrecht, Germany). After incubation overnight, cells were supplemented with half logarithmic dilution series of the indicated compounds and DPBS (PAN Biotech GmbH, Aidenbach, Germany) as control. Then 72 h after addition of cytostatic treatment, the MTT solution (20 μL, 5 mg/mL) was added into the wells for 1 h at 37 °C and 5% CO2 until formazan crystals were formed. The supernatant was removed, and the cells were dissolved in 200 μL of DMSO. Absorption was analyzed at 570 nm, with background subtraction at 690 nm, using a plate reader (Thermomultiscan EX, Thermo, Schwerte, Germany). Cell viability was then determined by nonlinear regression and a four-parameter logistic equation with variable hill slope. […] The significance of the difference of the effects of 33 and 4 + 57 was determined by using an unpaired, two-tailed t test with Welch’s correction, implemented in GraphPad Prism 8.4.0 (GraphPad, USA). Statistical significance was accepted if p < 0.05. Asterisks indicate *p < 0.05, **p < 0.01.

[2] = system: histone H3 acetylation (marker of HDAC1-3 inhibition); test: Western blot on histone H3 hyperacetylation in MCF-7 cells; type: cell-based; conditions: 24 h, 10 µM
Experimental: Western blots on histone H3 hyperacetylation in MCF-7 cells were performed according to a previously published protocol.[72] In brief, MCF-7 were centrifuged (450g, 4 min, 22 °C) and lysed with cell extraction buffer (Thermo Fisher), supplemented with 0.1 mM PMSF, Halt Protease Inhibitor (Thermo Fisher), and Natriumorthovanadat (Thermo Fisher). Precast gels with a polymerization degree of 4–15% were used (Mini-PROTEAN TGX Stain-Free; Bio-Rad Laboratories GmbH, Munich, Germany). Proteins were transferred to Trans-Blot Turbo-PVDF membrane (Bio-Rad). The membrane was blocked with skimmed milk powder in Tris-buffered saline-Tween 20 (with 0.2% Tween 20) for 60 min, followed by three washing cycles of 10 min using Tris-buffered saline-Tween 20. Afterward, membranes were incubated with primary antibodies for ac.-Histon H3 (Cell Signal, rabbit) and GAPDH (Gene Tex, Irvine, USA, mouse) for a total of 60 min at room temperature and then incubated at 4 °C overnight. […] After rinsing of the secondary antibody, membranes were detected using ClarityECL Western Blotting Substrate (Bio-Rad). For quantitative determination, the StainFree technique was employed (Bio-Rad), as well as normalization, against the housekeeping protein GAPDH, which allows the imaging of whole lysates in SDS-PAGE before blotting and normalization against the total protein. […]

W1 ovarian cancer cells = test: Cell viability assay (MTT) W1; type: cell-based; conditions: 72 h, @ 50 μM
Experimental: as §1

[3] = system: PC-3M-luc prostate cancer cells; test: Cell viability assay (MTS) PC-3M-luc; type: cell-based; conditions: 72 h, @ 50 μM
Experimental: as §1

[4] = system: HGC27 gastric carcinoma cells; test: Cell viability assay (MTS) HGC27; type: cell-based; conditions: 72 h, @ 50 μM
Experimental: as §1

α-tubulin acetylation = test: Immunofluorescence microscopy of α-tubulin acetylation in PC-3M-luc cells; type: cell-based; conditions: 20 μM, 5 h
Experimental: The detection of acetylation levels of α-tubulin by immunofluorescence was performed as previously described.[47] In brief, PC-3M-luc cells (25 000 cells per well) were plated in Ibidi 8-well slides (Ibidi, catalogue no. 80826) and incubated overnight at 37 °C, 5% CO2. Next, cells were treated with 20 μM of inhibitor. After 5 h, the medium was removed and the cells washed with PBS and fixed with 4% PFA for 8–10 min at ambient temperature. Cells were rinsed three times with PBS and lysed with extraction buffer (PBS, 0.1% Triton X-100) for 3–5 min at ambient temperature. After another washing step with PBS, blocking buffer (PBS, 0.1% Triton, 5% FCS) was added for at least 10 min before incubating with monoclonal acetylated α-tubulin antibody (1:500, Sigma-Aldrich, catalogue no. T6793) in blocking buffer overnight at 4 °C. […] The cells were rinsed two times with blocking buffer and once with PBS and DAPI in mounting medium ([…] HardSet Antifade Mounting Medium with DAPI, no. H-1500-10) diluted 1:50 in PBS was added and it was incubated for 10 min in the dark. Confocal microscopy was performed with a Leica SP8 confocal microscope equipped with a 40×/1.40 oil objective (Leica Microsystems) keeping the laser settings of the images constant to allow direct comparison of signal intensities between images.

Sirt2 (demyristoylation) = Sirt2 (demyristoylation) (Homo sapiens, UniProt Q8IXJ6); test: Continuous Sirt2 demyristoylation assay (myristoylated peptide substrate); type: biochemical; conditions: peptide-based myristoylated substrate, triplicate; read-out: Sirt2-mediated demyristoylation IC50
Sirt2 (demyristoylation), sequence (Q8IXJ6 whole entry): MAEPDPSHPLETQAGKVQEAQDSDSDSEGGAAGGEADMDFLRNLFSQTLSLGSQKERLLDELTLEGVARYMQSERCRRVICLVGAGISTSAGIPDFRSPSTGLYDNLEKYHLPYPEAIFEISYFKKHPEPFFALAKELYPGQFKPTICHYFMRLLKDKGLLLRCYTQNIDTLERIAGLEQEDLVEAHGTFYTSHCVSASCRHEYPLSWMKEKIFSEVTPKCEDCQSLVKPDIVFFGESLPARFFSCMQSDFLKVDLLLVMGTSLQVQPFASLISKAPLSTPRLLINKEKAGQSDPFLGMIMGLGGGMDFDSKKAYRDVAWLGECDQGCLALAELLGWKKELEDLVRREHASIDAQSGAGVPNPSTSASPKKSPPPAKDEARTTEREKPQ
Experimental: As a second method to confirm the inhibition of Sirt2-mediated demyristoylation by 33, we used a continuous Sirt2 demyristoylation assay as reported by Zessin et al.[48] In brief, this assay was performed in a black 384-well fluorescence plate in a total volume of 40 μL of Sirt assay buffer (20 mM Tris-HCl, 150 mM NaCl, 5 mg/mL MgCl2, 2 mg/mL BSA, pH 7.8). Dilution series of the inhibitor was done in DMSO. A total of 2 μL of the inhibitor dilutions were incubated with 14 μL of the peptide substrate, referred to as F4 in Zessin et al.[48] (final concentration 40 nM) and 14 μL of Sirt2 solution (final concentration 1 nM) for 5 min at room temperature. In addition to the inhibitor-containing samples, a sample without inhibitors was measured as a positive control, and a sample without enzymes was measured as a negative control. The DMSO concentration was set to 5% (v/v). The reaction was started by the addition of 10 μL of NAD^+ (final concentration 500 μM). The product formation was monitored by the change in fluorescence intensity, and the reaction rate represented the activity. Fluorescence readout was performed with a BMG Fluostar Omega plate reader at following wavelengths: Excitation wavelength: λEx = 485 ± 10 nm, emission wavelength: λEm = 530 ± 10 nm. Inhibition was calculated using the following equation: [drawing 1] […]

| IC50 (Sirt2 (demyristoylation)) | SMILES | MCF-7 cellular effect [1] | Histone H3 hyperacetylation (cellular class I HDAC off-target inhibition) [2] | W1 cellular effect (W1 ovarian cancer cells) | PC-3M-luc cellular effect [3] | HGC27 cellular effect [4] | α-tubulin acetylation (immunofluorescence) (α-tubulin acetylation) |
| --- | --- | --- | --- | --- | --- | --- | --- |
| – | Cc1cc(C)nc(SCC(=O)Nc2ncc(Cc3cccc(OCc4cn(CCCCC(=O)NCc5ccc(C(=O)NO)cc5)nn4)c3)s2)n1 [Compound 32, 4-((5-(4-((3-((2-(2-((4,6-Dimethylpyrimidin-2-yl)thio)acetamido)thiazol-5-yl)methyl)phenoxy)methyl)-1H-1,2,3-triazol-1-yl)pentanamido)methyl)-N-hydroxybenzamide] | ni ^b (ni = no inhibition (cellular effect <20% @ 50 μM)) | no significant off-target inhibition of class I | ni ^b (ni = no inhibition (cellular effect <20% @ 50 μM)) | ni ^b (ni = no inhibition (cellular effect <20% @ 50 μM)) | ni ^b (ni = no inhibition (cellular effect <20% @ 50 μM)) | – |
| 480 ± 120 nM | COCCn1cc(COc2cccc(Cc3cnc(NC(=O)CSc4nc(C)cc(C)n4)s3)c2)nn1 [Compound 5, SirReal1.2, reference compound] | – | – | – | – | – | very minor |
